From publication PMC11002876, “KcsA-Kv1.x chimeras with complete ligand-binding sites provide improved predictivity for screening selective Kv1.x blockers” (The Journal of Biological Chemistry, 2024)
Residue numbers refer to the chain shown, from its start. Entries after “also recorded” stand apart in the source; their conditions may differ.

Tests used:
[1] = target: T1, KcsA-Kv1.2 T-only chimera (Streptomyces lividans, UniProt P0A334, A54E/A57S/G53D/G56E/I60P/L59F/P55R/R52A/R64D/T61S/Y62I); assay: Phage-binding competition assay, KcsA-Kv1.2 T-only; design: species or system human Kv1.2 turret in Streptomyces lividans KcsA; settings: HgTx1-phage competition, KcsA-Kv1.2 T-only; value given in figure, sigmoidal fit to means of three replicates; read-out: IC50 (Fig. 7E)
T1 sequence (P0A334 1-160 R52A/G53D/A54E/P55R/G56E/A57S/L59F/I60P/T61S/Y62I/R64D): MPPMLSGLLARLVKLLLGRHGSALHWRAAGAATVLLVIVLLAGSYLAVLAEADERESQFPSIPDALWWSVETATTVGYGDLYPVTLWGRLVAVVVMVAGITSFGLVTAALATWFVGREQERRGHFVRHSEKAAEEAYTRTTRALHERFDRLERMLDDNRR
Protocol: (§1) Phage stock solutions were diluted to working concentration with phage resuspension buffer supplemented with 2 mM DDM. For protein immobilization, the following amounts were used in a final volume of 50 μl/well: wt KcsA, 0.1 μg; KcsA-Kv1.1 T-only, 0.005 μg; KcsA-Kv1.1 T+F, 0.02 μg; KcsA-Kv1.2 T-only, 0.01 μg; KcsA-Kv1.2 T+F, 0.1 μg; KcsA-Kv1.3 T-only, 0.01 μg; and KcsA-Kv1.3 T+F, 0.1 μg. Protein samples were diluted in 50 μl of storage buffer (20 mM Tris pH8.0, 300 mM KCl, 2 mM DDM) and were added to the designated wells of a Pierce Clear, 96-Well Nickel Coated Plate (15442, Thermo Fisher Scientific), then incubated for 1 h at room temperature on a horizontal shaker at 130 rpm. The plate was blocked for 1 h at room temperature with 180 μl/well TBS-BSA supplemented with 1 mM DDM. Following blocking, the wells were washed 4× with washing buffer (300 μl TBS-Tween, 0.1% v/v) using a Wellwash Versa microplate washer (Thermo Fisher Scientific); then 50 μl phage solution (in TBS-BSA-Tween, 0.1% v/v, 2 mM DDM) at determined phage concentration was added to the wells and incubated for 1 h at room temperature on a horizontal shaker. The plate was washed 4× with washing buffer, then 50 μl anti-M13 IgG HRP (MA5-36125, Invitrogen) diluted to 1:2500 in TBS-Tween (0.1% v/v) was added to the wells and incubated for 1 h at room temperature. The plate was washed again 4× with 300 μl/well washing buffer. Finally, 50 μl/well 1-Step Ultra TMB-ELISA solution (34028, Thermo Fisher Scientific) was added to the wells, and the developing signal was stopped with 50 μl 1M HCl after 5 to 10 min. The light absorbance signal was read at 450 nm with Byonoy absorbance 96 plate reader (Byonoy GmbH).
(§2) For protein immobilization, the following amounts were used in a final volume of 50 μl/well: KcsA-Kv1.1 T-only, 0.005 μg; KcsA-Kv1.1 T+F, 0.01 μg; KcsA-Kv1.2 T-only, 0.025 μg; KcsA-Kv1.2 T+F, 0.0125 μg; KcsA-Kv1.3 T-only, 0.01 μg; and KcsA-Kv1.3 T+F, 0.1 μg. Protein samples were diluted in storage buffer. Binding of given concentrations of relevant ligand-displaying phages quantified by light absorbance ([…]) were investigated in a similar manner as in phage ELISA-binding assay, while different concentrations of competing toxin test substances were applied simultaneously. The results were converted to percent inhibitions (percent displacement) of the indicator phage binding, and relative affinities of the tested toxins were assessed by plotting percent displacements against log concentrations and determining half maximal inhibitory concentrations (IC50) by sigmoidal curve fitting using “Sigmoidal dose-response (variable slope) with least squares method” algorithm in GraphPad Prism 8 using the following equation: Y=Bottom+Top−Bottom/1+10^(LogEC50−×)⋅HillSlope

[2] = target: T2, KcsA-Kv1.2 T-only chimera (Streptomyces lividans, UniProt P0A334, R52A/G53D/A54E/P55R/G56E/A57S/L59F/I60P/T61S/Y62I/R64D); assay: Phage-binding competition assay, KcsA-Kv1.2 T-only; design: species or system human Kv1.2 turret in Streptomyces lividans KcsA
T2 sequence (P0A334 1-160 R52A/G53D/A54E/P55R/G56E/A57S/L59F/I60P/T61S/Y62I/R64D): T1 sequence (P0A334 1-160 R52A/G53D/A54E/P55R/G56E/A57S/L59F/I60P/T61S/Y62I/R64D)
Protocol: as §1, §2

[3] = target: T3, KcsA-Kv1.3 T-only chimera (Streptomyces lividans, UniProt P0A334, A54D/A57S/G53D/G56T/I60S/L59F/Q58G/R52A/R64D/T61S/Y62I); assay: Phage-binding competition assay, KcsA-Kv1.3 T-only; design: species or system human Kv1.3 turret in Streptomyces lividans KcsA
T3 construct: made in house; host or cells: E. coli XL1-Blue (pQE30)
T3 sequence (P0A334 1-160 R52A/G53D/A54D/G56T/A57S/Q58G/L59F/I60S/T61S/Y62I/R64D): T1 sequence (P0A334 1-160 R52A/G53D/A54E/P55R/G56E/A57S/L59F/I60P/T61S/Y62I/R64D) with E54D, R55P, E56T, Q58G, P60S
Protocol: as §1, §2

[4] = target: T4, KcsA-Kv1.2 T+F chimera (Streptomyces lividans, UniProt P0A334, A54E/A57S/G53D/G56E/I60P/L59F/L81M/P55R/R52A/R64D/T61S/V84T/Y62I/Y82V); assay: Phage-binding competition assay, KcsA-Kv1.2 T+F; design: species or system human Kv1.2 turret and filter in Streptomyces lividans KcsA; settings: displacement of HgTx1-phage; KcsA-Kv1.2 T+F 0.0125 μg/well on nickel-coated plate; mean ± SD (n = 3); read-out: IC50, T+F chimera (Kv1.2)
T4 sequence (P0A334 1-160 R52A/G53D/A54E/P55R/G56E/A57S/L59F/I60P/T61S/Y62I/R64D/L81M/Y82V/V84T): T1 sequence (P0A334 1-160 R52A/G53D/A54E/P55R/G56E/A57S/L59F/I60P/T61S/Y62I/R64D) with L81M, Y82V, V84T
Protocol: as §1, §2

[5] = target: T5, KcsA-Kv1.2 T+F chimera (Streptomyces lividans, UniProt P0A334, R52A/G53D/A54E/P55R/G56E/A57S/L59F/I60P/T61S/Y62I/R64D/L81M/Y82V/V84T); assay: Phage-binding competition assay, KcsA-Kv1.2 T+F; design: species or system human Kv1.2 turret and filter in Streptomyces lividans KcsA; settings: rank by competition IC50 among MTX, ShK, KTX1
T5 sequence (P0A334 1-160 R52A/G53D/A54E/P55R/G56E/A57S/L59F/I60P/T61S/Y62I/R64D/L81M/Y82V/V84T): T1 sequence (P0A334 1-160 R52A/G53D/A54E/P55R/G56E/A57S/L59F/I60P/T61S/Y62I/R64D) with L81M, Y82V, V84T
Protocol: as §1, §2

CC[C@H](C)[C@H](NC(=O)[C@H](CCC(=O)O)NC(=O)[C@@H](NC(=O)CN)C(C)C)C(=O)N[C@@H](CC(N)=O)C(=O)N[C@H](C(=O)N[C@@H](CCCCN)C(=O)N[C@H]1CSSC[C@@H]2NC(=O)[C@H](CCCCN)NC(=O)CNC(=O)[C@H](Cc3ccccc3)NC(=O)[C@H](CCCNC(=N)N)NC(=O)[C@H](CCSC)NC(=O)CNC(=O)[C@H](C)NC(=O)[C@H](CC(=O)O)NC(=O)[C@H](CCCCN)NC(=O)[C@@H]3CSSC[C@@H](C(=O)N[C@H](C(=O)N4CCC[C@H]4C(=O)N[C@@H](CCCCN)C(=O)O)[C@@H](C)O)NC(=O)[C@H](Cc4c[nH]cn4)NC(=O)[C@H](CSSC[C@H](NC(=O)[C@H](CCC(N)=O)NC(=O)[C@@H]4CCCN4C(=O)[C@H](CO)NC(=O)CNC(=O)[C@H](CO)NC1=O)C(=O)N[C@@H](CC(C)C)C(=O)N[C@@H](CCCCN)C(=O)N1CCC[C@H]1C(=O)N3)NC(=O)[C@H](CCCCN)NC(=O)[C@H](CCCNC(=N)N)NC(=O)[C@H](CC(N)=O)NC(=O)[C@H](CCSC)NC2=O)C(C)C [KTX1, Kaliotoxin-1]
IC50 [1]: 0.184 nM | binding to KcsA-Kv1.2 T-only, in words ([2]; HgTx1-phage competition, Fig. 7E (ligand-binding pattern)): inconsistent with their published channel blocking potencies; also recorded: ShK > KTX1 > MTX | Rank, T-only chimera (Kv1.2) ([2]; rank by competition IC50 among MTX, ShK, KTX1): 2 | IC50 ([3]; HgTx1-phage competition, T-only KcsA-Kv1.3, value given in figure, sigmoidal fit to means of three replicates, read-out: IC50 (Fig. 6E)): 0.416 nM | Rank, T-only chimera (Kv1.3) ([3]; rank by competition IC50 among Vm24, HgTx1, KTX1): 1 | IC50 [4]: 205 nM | Rank, T+F chimera (Kv1.2) [5]: 3
